# Measured values as given in patent US20210137828A1, “Cannabidiol Sublingual Spray Formulations” (priority 2019, published 2021).
# Key:
# [1] = tested on: vascular damage, vascular hyperpermeability; details: high glucose environment, inflammation or induction of type 2 diabetes in animal models; cited from earlier work
# anxiety = details: patients with social anxiety disorder; cited from earlier work
# breast tumor cell lines = details: different breast tumor cell lines; cited from earlier work
# [2] = 700 milligrams per day for 6 weeks; cited from earlier work
# [3] = tested on: human experimental psychosis; details: cited from earlier work
# [4] = Impurity stability of CBD sublingual spray formulation; type: physicochemical; parameters: unit not given here
# Description: Stability data was established for formulations with 25 mg/spray, 0.2% sucralose, 0.4% strawberry flavor, and 10% ethanol in the presence of MCT oil. […] This can be extrapolated to assigning a one year expiration at room temperature for lipid based formulation. See Table 1 through 2 for stability data of impurities and assay.
# non-cancer cells = details: compared with breast tumor cell lines; cited from earlier work
# seizure frequency = details: cited from earlier work
# [5] = tested on: non-tumorigenic, mammary cells; details: at concentrations effective in tumor cells; cited from earlier work
# seizures = details: doses up to 25 milligrams per kilogram of body weight; cited from earlier work
# incidence of diabetes = details: non-obese diabetic mice, cited from earlier work
# [6] = tested on: estrogen receptor-positive and estrogen receptor-negative breast cancer cells; details: cited from earlier work
# [7] = tested on: chronic inflammatory and neuropathic pain; details: rodents; cited from earlier work
# toxin-induced vomiting = details: low doses; cited from earlier work
structure (smiles),measurement,setting,value
"C=C(C)[C@@H]1CCC(C)=C[C@H]1c1c(O)cc(CCCCC)cc1O [CBD, cannabidiol]",Protection against vascular damage,[1],protects against the vascular damage
same,Effect on anxiety,anxiety,reduce anxiety
same,Inhibition of growth of breast tumor cell lines,breast tumor cell lines,potently and selectively inhibited the growth
same,Overt toxicity in humans,[2],did not show any overt toxicity
same,Effect on human experimental psychosis,[3],prevents human experimental psychosis
same,CBD peak (RRT 1.00) in impurity stability data,[4]; T = 0,99.24
same,CBD peak (RRT 1.00) in impurity stability data,[4]; T = 2wk 25 C.,99.05
same,CBD peak (RRT 1.00) in impurity stability data,[4]; T = 2wk 40 C.,98.60
same,CBD peak (RRT 1.00) in impurity stability data,[4]; T = 4wk 25 C.,98.75
same,CBD peak (RRT 1.00) in impurity stability data,[4]; T = 4wk 40 C.,97.96
same,Potency in non-cancer cells,non-cancer cells,significantly less potency in non-cancer cells
same,Parents reporting a reduction in their child's seizure frequency,seizure frequency; 16 of 19 parents,84%
same,Parents reporting greater than 80 percent reduction in seizure frequency,seizure frequency; eight of 19 parents,42%
same,Side effects,"seizure frequency; parent survey, children with epilepsy",drowsiness and fatigue
same,Parents reporting 25-60 percent seizure reduction,seizure frequency; six of 19 parents,32%
same,Parents reporting complete seizure freedom,seizure frequency; two of 19 parents,11%
same,Effect on non-tumorigenic mammary cells,[5],little effect
same,Tolerability,seizures,generally well-tolerated
same,Incidence of diabetes,incidence of diabetes; 86 percent in non-treated mice,30%
same,"Insulitis, histological examination of pancreatic islets",incidence of diabetes,significantly reduced insulitis
same,Plasma levels of pro-inflammatory cytokines,incidence of diabetes,significant reduction
same,Cell death of breast cancer cells,[6],induced a concentration-dependent cell death
same,Analgesic tolerance,[7],without causing analgesic tolerance
same,Suppression of chronic inflammatory and neuropathic pain,[7],significantly suppressed chronic inflammatory and neuropathic pain
same,Effect on toxin-induced vomiting,toxin-induced vomiting,suppresses toxin-induced vomiting
